The source of these data is US20170044104A1, “NEW PESTICIDAL COMPOUNDS AND USES” (BAYER CROPSCIENCE AG, priority 2013, published 2017).

One experiment concerns Haemonchus contortus. Kind of experiment: Haemonchus contortus (HAEMCO) larval mortality assay. The conditions noted are these: 120 h; for mortality at 20 ppm: application rate 20 ppm; for Emax at 0.8 ppm / Emax at 4 ppm / Emax at 20 ppm: comparative test, 5 dat, read-out: % Efficacy. As for the experimental part: (§1) Solvent: dimethyl sulfoxide
(§2) To produce a suitable preparation of active compound, 10 mg of active compound are dissolved in 0.5 ml solvent, and the concentrate is diluted with “Ringer's solution” to the desired concentration.
Approximately 40 larvae of the red stomach worm (Haemonchus contortus) are transferred into a test tube containing compound solution.
After 5 days percentage of larval mortality are recorded. 100% efficacy means all larvae are killed, 0% efficacy means no larvae are killed.

Experiment [1] relates to Nippostrongylus brasiliensis. The experiment can be described thus: Nippostrongylus brasiliensis (NIPOBR) assay, acetylcholine esterase readout. The following applies: 10 ppm (10 μg/ml), adult worms, read-out: activity (reduction of AChE compared to negative control). How it is done: Adult Nippostrongylus brasiliensis were washed with saline buffer containing 100 U/ml penicillin, 0.1 mg/ml streptomycin and 2.5 μg/ml amphotericin B. Test compounds were dissolved in DMSO and worms were incubated in medium in a final concentration of 10 μg/ml (10 ppm). An aliquot of the medium was used to determine the acetylcholine esterase activity in comparison to a negative control. The principle of measuring acetylcholine esterase as readout for anthelmintic activity was described in Rapson et al (1986) and Rapson et al (1987).

For another experiment, the system named is Cooperia curticei. The experiment can be described thus: Cooperia curticei (COOPCU) larval mortality assay. The following applies: 120 h, after 5 days, read-out: activity (percentage of larval mortality); for mortality at 20 ppm: application rate 20 ppm. As for the experimental part: as §1, §2
Approximately 40 nematode larvae (Cooperia curticei) are transferred into a test tube containing the compound solution.
After 5 days percentage of larval mortality is recorded. 100% efficacy means all larvae are killed; 0% efficacy means no larvae are killed.

Another experiment concerns Meloidogyne incognita. Kind of experiment: Meloidogyne incognita (MELGIN) gall formation assay. The experiment is classed as in vivo. The conditions noted are these: 336 h, application rate 20 ppm, after 14 days, salad seedlings, read-out: nematicidal activity (percentage of gall formation). How it is done: Solvent: 125.0 parts by weight of acetone
To produce a suitable preparation of active compound, 1 part by weight of active compound is mixed with the stated amount of solvent, and the concentrate is diluted with water to the desired concentration.
Vessels are filled with sand, a solution of the active ingredient, a suspension containing eggs and larvae of the southern root-knot nematode (Meloidogyne incognita) and salad seeds. The salad seeds germinate and the seedlings grow. Galls develop in the roots.
After 14 days the nematicidal activity is determined on the basis of the percentage of gall formation. 100% means no galls were found and 0% means the number of galls found on the roots of the treated plants was equal to that in untreated control plants.

[2] abbreviates: after 5 days, read-out: activity (percentage of larval mortality).

The term mortality denotes the share of the test organisms that died. In the case of `O=C(NCCc1cccc(-c2ccc(OCC(F)(F)F)nc2)c1)c1ccccc1C(F)(F)F` [Example 1-1], the mortality at 20 ppm with Haemonchus contortus (setting [2]) and in the experiment with Cooperia curticei was 80% throughout. Besides, in experiment [1], the inhibition at 10 ppm is at least 60%.

With `O=C(NCCc1cccc(-c2ccc(Cl)nc2)c1)c1ccccc1C(F)(F)F` [Example 1-9], the inhibition at 10 ppm in experiment [1] is at least 60%. The mortality at 20 ppm in the experiment with Cooperia curticei was 100%.

With `O=C(NCCc1ccc(-c2cncc(Cl)c2)cc1)c1cccnc1C(F)(F)F` [Example 1-16], the mortality at 20 ppm is 80% in the experiment with Haemonchus contortus (setting [2]) and 100% in the experiment on Cooperia curticei. For the same molecule, in the experiment with Meloidogyne incognita, the pest or weed control at 20 ppm came out at 90%.

Consider `O=C(NCCc1ccc(-c2ccc(C(F)(F)F)nc2)cc1)c1cccnc1C(F)(F)F` [Example 1-19], for which the pest or weed control at 20 ppm in the experiment with Meloidogyne incognita came out at 90%. Besides, in the experiment with Cooperia curticei, the mortality at 20 ppm is 100%.

Regarding `O=C(NCCc1ccc(-c2cncc(F)c2)cc1)c1cccnc1C(F)(F)F` [Example 1-20], the mortality at 20 ppm in the experiment with Haemonchus contortus (setting [2]) was found to be 80%; with Cooperia curticei, 100%. In addition, the pest or weed control at 20 ppm in the experiment on Meloidogyne incognita worked out at 90%.

Take `Cn1cc(-c2ccc(CCNC(=O)c3cccnc3C(F)(F)F)cc2)cn1` [Example 1-24]: in the experiment with Meloidogyne incognita, the pest or weed control at 20 ppm was 90%. In addition, the mortality at 20 ppm in the experiment with Cooperia curticei stood at 90%.

Consider `O=C(NCCc1ccc(-c2cccnc2)cc1Cl)c1ccccc1C(F)(F)F` [Example 1-33], for which the mortality at 20 ppm with Haemonchus contortus (setting [2]) and with Cooperia curticei was 100% each time. Besides, the inhibition at 10 ppm in experiment [1] was at least 60%.

For `O=C(NCCc1ccc(-c2ccccn2)cc1Cl)c1ccccc1C(F)(F)F` [Example 1-39], the mortality at 20 ppm with Haemonchus contortus (setting [2]) and in the experiment with Cooperia curticei was 100% throughout. Also, the pest or weed control at 20 ppm in the experiment with Meloidogyne incognita is 100%.

On to `Cc1ncccc1-c1ccc(CCNC(=O)c2ccccc2C(F)(F)F)c(Cl)c1` [Example 1-42], for which the mortality at 20 ppm in the experiment on Haemonchus contortus (setting [2]) and in the experiment on Cooperia curticei was 100% throughout. Besides, the pest or weed control at 20 ppm in the experiment on Meloidogyne incognita turned out to be 90%.

Consider `O=C(NCCc1ccc(-c2cncc(Cl)c2)cc1Cl)c1ccccc1C(F)(F)F` [Example 1-45, N-{2-[2-chloro-4-(5-chloropyridin-3-yl)phenyl]ethyl}-2-(trifluoromethyl)benzamide], for which the mortality at 20 ppm in the experiment with Haemonchus contortus (setting [2]) worked out at 100%. For the same molecule, in the experiment on Haemonchus contortus, the Emax at 0.8 ppm is 100%, the Emax at 4 ppm amounted to 100% and the Emax at 20 ppm worked out at 100%. Further, the inhibition at 10 ppm in experiment [1] is at least 60%. Besides, the mortality at 20 ppm in the experiment on Cooperia curticei is 100%.

For the molecule `Cn1cc(-c2ccc(CCNC(=O)c3ccccc3C(F)(F)F)c(Cl)c2)cn1` [Example 1-47], the mortality at 20 ppm with Haemonchus contortus (setting [2]) stood at 100%. Also, in the experiment with Haemonchus contortus, the Emax at 0.8 ppm was determined as 80%, the Emax at 4 ppm was 100% and the Emax at 20 ppm was 100%. Moreover, the pest or weed control at 20 ppm in the experiment with Meloidogyne incognita was determined as 100%. Besides, in the experiment with Cooperia curticei, the mortality at 20 ppm stood at 100%.

Turning to `O=C(NCCc1ccc(-c2ccc(Cl)nc2Cl)cc1Cl)c1ccccc1C(F)(F)F` [Example 1-49], the mortality at 20 ppm in the experiment with Haemonchus contortus (setting [2]) stood at 90%; in the experiment with Cooperia curticei it was 100%. In addition, the inhibition at 10 ppm in experiment [1] is at least 60%.

In the case of `O=C(NCCc1ccc(-c2cncc(Cl)c2)cc1)c1ccccc1C(F)(F)F` [Example 1-53], the mortality at 20 ppm in the experiment on Haemonchus contortus (setting [2]) and in the experiment on Cooperia curticei was 100% each time. Also, the inhibition at 10 ppm in experiment [1] is at least 60%.

On to `O=C(NCCc1ccc(-c2ccc(Cl)nc2)cc1Cl)c1ccccc1C(F)(F)F` [Example 1-66], for which the mortality at 20 ppm in the experiment on Haemonchus contortus (setting [2]) and in the experiment with Cooperia curticei was 100% throughout. The pest or weed control at 20 ppm in the experiment with Meloidogyne incognita is 90%.

On to `O=C(NCC(F)c1ccc(-c2ccc(C(F)(F)F)nc2)cc1Cl)c1nccnc1C(F)(F)F` (stereo not drawn) [Example 1-72], for which the mortality at 20 ppm with Haemonchus contortus (setting [2]) and with Cooperia curticei was 100% in each case.

Consider `O=C(NCC(F)c1ccc(-c2cccnc2Cl)cc1Cl)c1nccnc1C(F)(F)F` (stereo not drawn) [Example 1-79], for which the mortality at 20 ppm with Haemonchus contortus (setting [2]) and with Cooperia curticei was 100% in each case.

On to `O=C(NCC(F)c1ccc(-c2cccnc2Cl)cc1Cl)c1cccnc1C(F)(F)F` (stereo not drawn) [Example 1-80], for which the mortality at 20 ppm in the experiment with Haemonchus contortus (setting [2]) and in the experiment on Cooperia curticei was 100% each time. Besides, the pest or weed control at 20 ppm in the experiment with Meloidogyne incognita came out at 90%.

Take `O=C(NCC(F)c1ccc(-c2ccnc(F)c2)cc1Cl)c1cccnc1C(F)(F)F` (stereo not drawn) [Example 1-81]: the mortality at 20 ppm in the experiment on Haemonchus contortus (setting [2]) and in the experiment on Cooperia curticei was 100% each time. The pest or weed control at 20 ppm with Meloidogyne incognita is 100%.

As for `O=C(NCC(F)c1ccc(-c2cncc(Cl)c2)cc1Cl)c1cccnc1C(F)(F)F` (stereo not drawn) [Example 1-83], the mortality at 20 ppm with Haemonchus contortus (setting [2]) and with Cooperia curticei was 100% each time.

For `O=C(NCC(F)c1ccc(-c2ccc(Cl)nc2)cc1Cl)c1nccnc1C(F)(F)F` (stereo not drawn) [Example 1-85], the mortality at 20 ppm in the experiment with Haemonchus contortus (setting [2]) and with Cooperia curticei was 100% in each case. The pest or weed control at 20 ppm with Meloidogyne incognita stood at 100%.

`O=C(NCC(F)c1ccc(-c2ccc(Cl)nc2)cc1Cl)c1cccnc1C(F)(F)F` (stereo not drawn) [Example 1-86]: the mortality at 20 ppm in the experiment on Haemonchus contortus (setting [2]) and in the experiment on Cooperia curticei was 100% in each case. For the same molecule, in the experiment on Meloidogyne incognita, the pest or weed control at 20 ppm came out at 100%.

`O=C(NCC(F)(F)c1ccc(-c2ccc(C(F)(F)F)nc2)cc1Cl)c1ccccc1C(F)(F)F` [Example 1-94]: the mortality at 20 ppm in the experiment with Haemonchus contortus (setting [2]) and with Cooperia curticei was 100% throughout. Besides, in the experiment with Meloidogyne incognita, the pest or weed control at 20 ppm was determined as 100%.

Take `CC(F)(CNC(=O)c1nccnc1C(F)(F)F)c1ccc(-c2cncc(F)c2)cc1Cl` (stereo not drawn) [Example 1-102]: the mortality at 20 ppm in the experiment with Haemonchus contortus (setting [2]) and in the experiment with Cooperia curticei was 100% throughout.

Regarding `O=C(NCC(F)(F)c1ccc(-c2ccc(F)nc2)cc1Cl)c1cccnc1C(F)(F)F` [Example 1-104], in the experiment on Haemonchus contortus (setting [2]), the mortality at 20 ppm was found to be 90%. Moreover, the pest or weed control at 20 ppm in the experiment on Meloidogyne incognita was determined as 100%. In the experiment on Cooperia curticei (application rate 4 ppm), the mortality at 4 ppm is 100%.

In the case of `COc1ccc(-c2ccc(C(F)(F)CNC(=O)c3ccccc3C(F)(F)F)c(F)c2)cn1` [Example 1-110], the figures for the mortality at 20 ppm with Haemonchus contortus (setting [2]) and in the experiment with Cooperia curticei were 90% and 100%, respectively.

`O=C(NCC(F)(F)c1ccc(-c2ccc(Cl)nc2)cc1F)c1ccccc1C(F)(F)F` [Example 1-114]: the mortality at 20 ppm was found to be 80% in the experiment on Haemonchus contortus (setting [2]) and 100% in the experiment with Cooperia curticei.

As for `O=C(NCC(F)(F)c1ccc(-c2cncc(Cl)c2)cc1C(F)(F)F)c1ccccc1C(F)(F)F` [Example 1-120], the mortality at 20 ppm with Haemonchus contortus (setting [2]) and with Cooperia curticei was 100% in each case. Further, in the experiment with Meloidogyne incognita, the pest or weed control at 20 ppm turned out to be 100%.

On to `COc1cncc(-c2ccc(C(F)(F)CNC(=O)c3ccccc3C(F)(F)F)c(C(F)(F)F)c2)c1` [Example 1-121], for which the mortality at 20 ppm with Haemonchus contortus (setting [2]) and in the experiment with Cooperia curticei was 80% each time.

Regarding `O=C(NCC(F)(F)c1ccc(-c2cncc(F)c2)cc1C(F)(F)F)c1ccccc1C(F)(F)F` [Example 1-122], the mortality at 20 ppm in the experiment on Haemonchus contortus (setting [2]) and with Cooperia curticei was 100% throughout.

As for `O=C(NCC(F)(F)c1ccc(-c2ccc(C(F)(F)F)nc2)cc1C(F)(F)F)c1ccccc1C(F)(F)F` [Example 1-124], in the experiment on Haemonchus contortus (application rate 4 ppm, after 5 days, read-out: activity (percentage of larval mortality)), the mortality at 4 ppm turned out to be 90%. For the same molecule, the mortality at 20 ppm in the experiment with Cooperia curticei was 90%.

For `O=C(NCC(F)(F)c1ccc(-c2ccc(Cl)nc2)cc1C(F)(F)F)c1ccccc1C(F)(F)F` [Example 1-126], the mortality at 20 ppm in the experiment with Haemonchus contortus (setting [2]) and in the experiment on Cooperia curticei was 100% in each case. Further, the pest or weed control at 20 ppm in the experiment on Meloidogyne incognita amounted to 90%.

On to `COc1ccc(-c2ccc(C(F)(F)CNC(=O)c3ccccc3C(F)(F)F)c(C(F)(F)F)c2)cn1` [Example 1-127], for which the mortality at 20 ppm in the experiment on Haemonchus contortus (setting [2]) and in the experiment with Cooperia curticei was 100% throughout.

With `O=C(NCC(F)(F)c1ccc(-c2ccc(F)nc2)cc1C(F)(F)F)c1ccccc1C(F)(F)F` [Example 1-128], the mortality at 20 ppm in the experiment with Haemonchus contortus (setting [2]) and in the experiment on Cooperia curticei was 100% each time. Also, the pest or weed control at 20 ppm in the experiment on Meloidogyne incognita amounted to 100%.

In the case of `CC(F)(CNC(=O)c1cccnc1C(F)(F)F)c1ccc(-c2ccc(F)nc2)cc1Cl` (stereo not drawn) [Example 1-129], the pest or weed control at 20 ppm with Meloidogyne incognita came to 100%.

In the case of `CC(F)(CNC(=O)c1ccccc1C(F)(F)F)c1ccc(-c2ccc(F)nc2)cc1Cl` (stereo not drawn) [Example 1-130, N-{2-[2-chloro-4-(6-fluoropyridin-3-yl)phenyl]-2-fluoropropyl}-2-(trifluoromethyl) benzamide], the pest or weed control at 20 ppm in the experiment with Meloidogyne incognita was 100%.

In the case of `Cc1cc(-c2ccc(F)nc2)ccc1C(F)(F)CNC(=O)c1ccccc1C(F)(F)F` [Example 1-136], the pest or weed control at 20 ppm in the experiment with Meloidogyne incognita is 90%.

Consider `O=C(NCC(F)(F)c1ccc(-c2ccc(F)nc2)cc1C(F)(F)F)c1cccnc1C(F)(F)F` [Example 1-140], for which the pest or weed control at 20 ppm in the experiment on Meloidogyne incognita was found to be 90%.
